Data taken from ChEMBL document CHEMBL3885881, “DrugMatrix”.

Species on record: Rattus norvegicus
Assay: DrugMatrix - Regimen: Daily Repeat
Format: toxicity, organism-based, Sprague-Dawley
Set-up: regimen Daily Repeat, gender Male, age 6-8 weeks
Conditions: in vivo, po, route oral GAVAGE, vehicle 100 % WATER; for ABSOLUTE BASOPHIL / ABSOLUTE EOSINOPHIL / ABSOLUTE LYMPHOCYTE / ABSOLUTE MONOCYTE / ABSOLUTE SEGMENTED NEUTROPHIL / BASOPHIL / EOSINOPHIL / ERYTHROCYTE COUNT / HEMATOCRIT / HEMOGLOBIN / LEUKOCYTE COUNT / LYMPHOCYTE / MEAN CORPUSCULAR HEMOGLOBIN / MEAN CORPUSCULAR HEMOGLOBIN CONCENTRATION / MEAN CORPUSCULAR VOLUME / MONOCYTE / NEUTROPHIL / NUCLEATED RED BLOOD CELLS / PLATELET COUNT: tissue Blood; for ALANINE AMINOTRANSFERASE / ALBUMIN / ALKALINE PHOSPHATASE / ASPARTATE AMINOTRANSFERASE / BLOOD UREA NITROGEN / CARBON DIOXIDE / CHLORIDE / CHOLESTEROL / CREATINE PHOSPHOKINASE / CREATININE / GLUCOSE / LACTATE DEHYDROGENASE / LIPASE / PHOSPHORUS / POTASSIUM / SODIUM / TOTAL BILIRUBIN / TOTAL PROTEIN / URIC ACID: tissue Plasma
[1] = 14 mg/kg, 72 h, dose level Low, time 3 day
[2] = 14 mg/kg, 120 h, dose level Low, time 5 day
[3] = 1500 mg/kg, 72 h, dose level High, time 3 day
[4] = 1500 mg/kg, 120 h, dose level High, time 5 day

CN(C)[C@@H]1C(O)=C(C(N)=O)C(=O)[C@@]2(O)C(O)=C3C(=O)c4c(O)cccc4[C@@](C)(O)[C@H]3[C@H](O)[C@@H]12 [OXYTETRACYCLINE]
ABSOLUTE BASOPHIL [1]: 0 CELLS/uL
ABSOLUTE EOSINOPHIL [1]: 0 CELLS/uL
ABSOLUTE LYMPHOCYTE [1]: 14072 CELLS/uL
ABSOLUTE MONOCYTE [1]: 56.33 CELLS/uL
ABSOLUTE SEGMENTED NEUTROPHIL [1]: 1938.33 CELLS/uL
BASOPHIL [1]: 0%
EOSINOPHIL [1]: 0%
ERYTHROCYTE COUNT [1]: 5.7 x10E6/uL
HEMATOCRIT [1]: 36.73%
HEMOGLOBIN [1]: 14.4 G/DL
LEUKOCYTE COUNT [1]: 16.07 x10E3/uL
LYMPHOCYTE [1]: 87.67%
MEAN CORPUSCULAR HEMOGLOBIN [1]: 25.27 pg
MEAN CORPUSCULAR HEMOGLOBIN CONCENTRATION [1]: 39.27 G/DL
MEAN CORPUSCULAR VOLUME [1]: 64.4 fL
MONOCYTE [1]: 0.33%
NEUTROPHIL [1]: 12%
NUCLEATED RED BLOOD CELLS [1]: 0.33 /100WBC
PLATELET COUNT [1]: 1430 x10E3/uL
ALANINE AMINOTRANSFERASE [1]: 53.67 u/L
ALBUMIN [1]: 4.57 G/DL
ALKALINE PHOSPHATASE [1]: 372 u/L
ASPARTATE AMINOTRANSFERASE [1]: 89.33 u/L
BLOOD UREA NITROGEN [1]: 16.33 mg/dL
CARBON DIOXIDE [1]: 26.67 mmol/L
CHLORIDE [1]: 103.67 MEQ/L
CHOLESTEROL [1]: 85.33 mg/dL
CREATINE PHOSPHOKINASE [1]: 211.67 u/L
CREATININE [1]: 0.27 mg/dL
GLUCOSE [1]: 165 mg/dL
LACTATE DEHYDROGENASE [1]: 160 u/L
LIPASE [1]: 10 u/L
PHOSPHORUS [1]: 13.07 mg/dL
POTASSIUM [1]: 7.37 MEQ/L
SODIUM [1]: 146.77 MEQ/L
TOTAL BILIRUBIN [1]: 0.23 mg/dL
TOTAL PROTEIN [1]: 6.17 G/DL
URIC ACID [1]: 1.9 mg/dL
ABSOLUTE BASOPHIL [2]: 0 CELLS/uL
ABSOLUTE EOSINOPHIL [2]: 0 CELLS/uL
ABSOLUTE LYMPHOCYTE [2]: 12168.33 CELLS/uL
ABSOLUTE MONOCYTE [2]: 40 CELLS/uL
ABSOLUTE SEGMENTED NEUTROPHIL [2]: 991.67 CELLS/uL
BASOPHIL [2]: 0%
EOSINOPHIL [2]: 0%
ERYTHROCYTE COUNT [2]: 5.46 x10E6/uL
HEMATOCRIT [2]: 35.43%
HEMOGLOBIN [2]: 14.23 G/DL
LEUKOCYTE COUNT [2]: 13.2 x10E3/uL
LYMPHOCYTE [2]: 92%
MEAN CORPUSCULAR HEMOGLOBIN [2]: 26.03 pg
MEAN CORPUSCULAR HEMOGLOBIN CONCENTRATION [2]: 40.13 G/DL
MEAN CORPUSCULAR VOLUME [2]: 64.83 fL
MONOCYTE [2]: 0.33%
NEUTROPHIL [2]: 7.67%
NUCLEATED RED BLOOD CELLS [2]: 0 /100WBC
PLATELET COUNT [2]: 1202.33 x10E3/uL
ALANINE AMINOTRANSFERASE [2]: 48.67 u/L
ALBUMIN [2]: 4.47 G/DL
ALKALINE PHOSPHATASE [2]: 399.33 u/L
ASPARTATE AMINOTRANSFERASE [2]: 88 u/L
BLOOD UREA NITROGEN [2]: 16.67 mg/dL
CARBON DIOXIDE [2]: 26.33 mmol/L
CHLORIDE [2]: 102 MEQ/L
CHOLESTEROL [2]: 69.33 mg/dL
CREATINE PHOSPHOKINASE [2]: 216.67 u/L
CREATININE [2]: 0.2 mg/dL
GLUCOSE [2]: 150.33 mg/dL
LACTATE DEHYDROGENASE [2]: 200.67 u/L
LIPASE [2]: 9 u/L
PHOSPHORUS [2]: 14.23 mg/dL
POTASSIUM [2]: 7.61 MEQ/L
SODIUM [2]: 147.57 MEQ/L
TOTAL BILIRUBIN [2]: 0.17 mg/dL
TOTAL PROTEIN [2]: 6.43 G/DL
URIC ACID [2]: 2.1 mg/dL
ABSOLUTE BASOPHIL [3]: 0 CELLS/uL
ABSOLUTE EOSINOPHIL [3]: 0 CELLS/uL
ABSOLUTE LYMPHOCYTE [3]: 13408.67 CELLS/uL
ABSOLUTE MONOCYTE [3]: 33.33 CELLS/uL
ABSOLUTE SEGMENTED NEUTROPHIL [3]: 1491.33 CELLS/uL
BASOPHIL [3]: 0%
EOSINOPHIL [3]: 0%
ERYTHROCYTE COUNT [3]: 5.4 x10E6/uL
HEMATOCRIT [3]: 33.33%
HEMOGLOBIN [3]: 13.33 G/DL
LEUKOCYTE COUNT [3]: 14.93 x10E3/uL
LYMPHOCYTE [3]: 90.67%
MEAN CORPUSCULAR HEMOGLOBIN [3]: 24.7 pg
MEAN CORPUSCULAR HEMOGLOBIN CONCENTRATION [3]: 40.03 G/DL
MEAN CORPUSCULAR VOLUME [3]: 61.67 fL
MONOCYTE [3]: 0.33%
NEUTROPHIL [3]: 9%
NUCLEATED RED BLOOD CELLS [3]: 0 /100WBC
PLATELET COUNT [3]: 1276 x10E3/uL
ALANINE AMINOTRANSFERASE [3]: 67 u/L
ALBUMIN [3]: 4.17 G/DL
ALKALINE PHOSPHATASE [3]: 287.67 u/L
ASPARTATE AMINOTRANSFERASE [3]: 90.33 u/L
BLOOD UREA NITROGEN [3]: 14 mg/dL
CARBON DIOXIDE [3]: 30 mmol/L
CHLORIDE [3]: 103 MEQ/L
CHOLESTEROL [3]: 93 mg/dL
CREATINE PHOSPHOKINASE [3]: 208.33 u/L
CREATININE [3]: 0.2 mg/dL
GLUCOSE [3]: 142.33 mg/dL
LACTATE DEHYDROGENASE [3]: 267.67 u/L
LIPASE [3]: 10 u/L
PHOSPHORUS [3]: 13.33 mg/dL
POTASSIUM [3]: 6.65 MEQ/L
SODIUM [3]: 147.53 MEQ/L
TOTAL BILIRUBIN [3]: 0.1 mg/dL
TOTAL PROTEIN [3]: 5.63 G/DL
URIC ACID [3]: 1.47 mg/dL
ABSOLUTE BASOPHIL [4]: 0 CELLS/uL
ABSOLUTE EOSINOPHIL [4]: 0 CELLS/uL
ABSOLUTE LYMPHOCYTE [4]: 10152.67 CELLS/uL
ABSOLUTE MONOCYTE [4]: 25.33 CELLS/uL
ABSOLUTE SEGMENTED NEUTROPHIL [4]: 755.33 CELLS/uL
BASOPHIL [4]: 0%
EOSINOPHIL [4]: 0%
ERYTHROCYTE COUNT [4]: 5.33 x10E6/uL
HEMATOCRIT [4]: 34.37%
HEMOGLOBIN [4]: 13.93 G/DL
LEUKOCYTE COUNT [4]: 10.93 x10E3/uL
LYMPHOCYTE [4]: 92.33%
MEAN CORPUSCULAR HEMOGLOBIN [4]: 26.17 pg
MEAN CORPUSCULAR HEMOGLOBIN CONCENTRATION [4]: 40.53 G/DL
MEAN CORPUSCULAR VOLUME [4]: 64.53 fL
MONOCYTE [4]: 0.33%
NEUTROPHIL [4]: 7.33%
NUCLEATED RED BLOOD CELLS [4]: 0.33 /100WBC
PLATELET COUNT [4]: 1197.33 x10E3/uL
ALANINE AMINOTRANSFERASE [4]: 58 u/L
ALBUMIN [4]: 4.37 G/DL
ALKALINE PHOSPHATASE [4]: 321.33 u/L
ASPARTATE AMINOTRANSFERASE [4]: 83.33 u/L
BLOOD UREA NITROGEN [4]: 16 mg/dL
CARBON DIOXIDE [4]: 26.33 mmol/L
CHLORIDE [4]: 100.33 MEQ/L
CHOLESTEROL [4]: 75.67 mg/dL
CREATINE PHOSPHOKINASE [4]: 222.33 u/L
CREATININE [4]: 0.32 mg/dL
GLUCOSE [4]: 138 mg/dL
LACTATE DEHYDROGENASE [4]: 303 u/L
LIPASE [4]: 11 u/L
PHOSPHORUS [4]: 13.23 mg/dL
POTASSIUM [4]: 6.84 MEQ/L
SODIUM [4]: 146.1 MEQ/L
TOTAL BILIRUBIN [4]: 0.1 mg/dL
TOTAL PROTEIN [4]: 6.3 G/DL
URIC ACID [4]: 1.47 mg/dL
